Data reported in patent publication US20260263442A1, “METHOD FOR TREATING L-DOPA-INDUCED DYSKINESIA USING BEFIRADOL” (Neurolixis, Inc., priority 2023, published 2026).
Read-outs that look alike come from different tables or passages of the source.

Tests used:
[1] = test system: overall PD symptoms in PD patients with LID; type: in vivo, human
Source text: The CGI-C is a clinician-oriented scale that assesses the total improvement in the patient's condition relative to the clinical global impression of severity (CGI-S) scale conducted at baseline. The CGI-C rates the patient's condition from 0 to 7, with a rating of 0 indicating “no assessment”, a rating of 1 indicating “very much better”, and a rating of 7 indicating “very much worse”.

[2] = test system: pain in PD patients with LID; assay: King's Parkinson's Disease Pain Scale (KPPS), Phase 2a study; type: in vivo, human
Source text: The KPPS is a rater-interview-based scale conducted with the patient and caregiver (if available). It is a 14-item scale covering 7 domains of pain: • Musculoskeletal pain • Chronic pain • Fluctuation-related pain • Nocturnal pain • Orofacial pain • Edema/swelling; discoloration • Radicular pain Each item is scored by severity (0-3; none to very severe) multiplied by frequency (0-4; never to all the time), for an item sub score of 0-12, resulting in a total score from 0 to 168. Ratings are based on the previous month, or in the case of this study, the intervening period since the previous clinic visit (about 3 weeks). Treatment effects would be analyzed as change from baseline for total score and for individual pain domains.

[3] = test system: quality of life in PD patients with LID; assay: Parkinson's Disease Questionnaire (PDQ39), Phase 2a study; type: in vivo, human
Source text: The PDQ39-item patient reported outcome of health status and quality of life and is the most frequently used disease-specific health status measure for PD. The questionnaire assesses how often people affected by PD experience difficulties across 8 dimensions of daily living. The standard PDQ39 assesses quality of life over the previous month. In this study the initial time period assessed at the Baseline Visit would be the previous month, with subsequent assessments for the intervening period since the last clinic visit (about 3 weeks). The 8 quality of life dimensions covered in the questionnaire are: • Mobility (10 items #1-10) • ADL (6 items #11-16) • Emotional Well Being (6 items #17-22) • Stigma (4 items #23-26) • Social Support (3 items #27-29) • Cognition (4 items #30-33) • Communications (3 items #34-36) • Bodily Discomfort (3 items #37-39) Individual items are rated by the patient on a scale of […]. Dimension scores are calculated on a scale of 0 to 100. The total score and individual dimension scores would be assessed for change from baseline.

[4] = test system: anxiety and depression in PD patients with LID; assay: Hospital Anxiety Depression Scale (HADS), Phase 2a study; type: in vivo, human
Source text: The HADS is used to determine the levels of anxiety and depression that a person is experiencing. The questionnaire consists of 7 items related to anxiety and 7 related to depression. Each item on the questionnaires is scored from 0-3, which means that a person can score between 0 and 21 for either anxiety or depression.

[5] = test system: overactive bladder in PD patients with LID; assay: ICIQ Overactive Bladder Module (ICIQ-OAB), Phase 2a study; type: in vivo, human
Source text: The ICIQ-OAB provides a brief and robust measure to assess the impact of symptoms of overactive bladder on quality of life and outcome of treatment. It is a 4-item patient reported outcome covering 4 domains of bladder function: frequency, nocturia, urgency, and urge urinary incontinence. Each item is scored by frequency of 0-4, for a total score of 0-16. Ratings would be based on the previous month or since the last clinic visit. Efficacy would be assessed as change from the baseline total score.

[6] = both, human, in vivo
[7] = target: T1, 5-HT1A receptors (Homo sapiens, UniProt P08908); conditions: cited from earlier work
T1 sequence (P08908 1-422): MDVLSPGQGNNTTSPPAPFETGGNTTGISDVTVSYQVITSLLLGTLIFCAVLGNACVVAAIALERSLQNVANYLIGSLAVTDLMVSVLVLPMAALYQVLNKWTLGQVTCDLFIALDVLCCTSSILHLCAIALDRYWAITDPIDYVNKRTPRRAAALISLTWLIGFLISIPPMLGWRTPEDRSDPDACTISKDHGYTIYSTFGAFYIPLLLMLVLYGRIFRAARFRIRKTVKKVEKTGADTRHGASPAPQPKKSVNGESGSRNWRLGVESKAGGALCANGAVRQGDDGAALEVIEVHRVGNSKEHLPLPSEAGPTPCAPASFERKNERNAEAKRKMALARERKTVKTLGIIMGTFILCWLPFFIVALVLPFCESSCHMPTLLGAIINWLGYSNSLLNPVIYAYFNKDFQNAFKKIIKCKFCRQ

[8] = test system: 6-OH-DA lesioned rats; conditions: cited from earlier work
[9] = test system: MPTP-treated marmosets; conditions: cited from earlier work
[10] = test system: models of pain, forced swim test, spinal cord injury model; conditions: animal experiments; cited from earlier work
[11] = Baseline, Per Protocol Set, n = 15
[12] = change from baseline at day 28 (end of up-titration period), Per Protocol Set, n = 15
[13] = change from baseline at day 42 (end of stable dosing period), Per Protocol Set, n = 15

For `Cc1ccc(CNCC2(F)CCN(C(=O)c3ccc(F)c(Cl)c3)CC2)nc1` [NLX-112], the “CGI-C, proportion of patients improved (minimally, much or very much improved)” value ([1]; day 28) was 33%, the “CGI-C, proportion of patients improved (minimally, much or very much improved)” value ([1]; day 42) was 53% and the “KPPS, Baseline, mean (S.D.)” value [2, 11] was 16.0 (9.9). For the same compound, the “KPPS total score, change from baseline” value ([2]; Day 42) was “statistically significant improvement”, the “KPPS, Δ D28, mean (S.D.)” value ([2]; change from baseline at day 28 (end of up-titration period), Per Protocol Set, n = 15, **p < 0.01 vs baseline (LMM)) was −4.6 (7.5)** and the “KPPS, Δ D42, mean (S.D.)” value ([2]; change from baseline at day 42 (end of stable dosing period), Per Protocol Set, n = 15, **p < 0.01 vs baseline (LMM)) was −4.8 (7.8)**. The “Quality of life (PDQ39 score), effect” value ([3]; Days 28 or 42) was “no consistent statistically significant effect”, the “PDQ39, Δ D28, mean (S.D.)” value [3, 12] was −1.5 (8.0) and the “PDQ39, Δ D42, mean (S.D.)” value [3, 13] was −0.6 (6.5). The “HADS (Anxiety), Baseline, mean (S.D.)” value [4, 11] was 4.5 (2.5), the “HADS (Depression), Baseline, mean (S.D.)” value [4, 11] was 3.7 (2.7) and the “Anxiety and depression (HADS), effect” value ([4]; Days 28 or 42) was “no consistent statistically significant effect”. For the same compound, the “HADS (Anxiety), Δ D28, mean (S.D.)” value [4, 12] was −0.5 (2.5), the “HADS (Depression), Δ D28, mean (S.D.)” value [4, 12] was −0.4 (1.7) and the “HADS (Depression), Δ D42, mean (S.D.)” value [4, 13] was −0.6 (1.9). For the same compound, the “Incontinence (ICIQ-OAB), effect” value ([5]; Days 28 or 42) was “no consistent statistically significant effect”, the “ICIQ-OAB, Δ D28, mean (S.D.)” value [5, 12] was 0.7 (6.5) and the “ICIQ-OAB, Δ D42, mean (S.D.)” value [5, 13] was −0.8 (8.02). For the same compound, the “Befiradol Cmax in female subjects, higher than males by” value [6] was 20%-40%, the “5-HT1A receptor agonist profile” value [7] was “exceptional selectivity for 5-HT1A receptors and full agonist properties” and the “5-HT1A receptor agonist profile” value ([7]; listed as Befiradol) was “selective and potent”. For the same compound, the “Cellular signaling (biased agonist profile)” value ([7]; via G-proteins) was “preferentially activates specific cellular signaling cascades”, the Rotation behavior ([8]; 6-OH-DA lesioned rats) was “increases rotation behavior” and the “Dopamine surge following L-DOPA administration” value ([8]; parkinsonian rat model of LID) was “blunted”. For the same compound, the “Striatal 5-HT release” value ([8]; parkinsonian rat model of LID) was “inhibited striatal 5-HT release”, the “Antidyskinetic efficacy against L-DOPA-induced dyskinesia on chronic administration” value ([8]; rat, 2-week treatment period) was “did maintain its antidyskinetic efficacy” and the Disability scores [9] was “reduces disability scores”. For the same compound, the “Activity in models of pain, forced swim test and urinary function in a spinal cord injury model” value [10] was “pronounced activity”.
